{"source": "paper PMC3028519", "about": "(Toxicology and applied pharmacology, 2010)", "key": {"Disposition of Hg": {"assay": "Disposition of Hg", "details": "for cortical concentration of Hg, compared with rats of the same strain exposed to HgCl2 or CH3HgCl alone / cortical concentration of Hg, TR− rats compared with corresponding control rats: renal cortex; for distribution of Hg in blood between plasma and cellular components: each group of rats; for renal burden of Hg / administered dose present in blood: rats, strain not stated (discussion); for renal burden of Hg (total renal mass): HgCl2 0.5 μmol/kg (+1.25 μmol/kg Cys) or CH3HgCl 5 μmol/kg (+12.5 μmol/kg Cys)"}, "human MRP2": {"biological_target": "human MRP2 (Homo sapiens, UniProt Q92887)", "sequence (Q92887 whole entry)": "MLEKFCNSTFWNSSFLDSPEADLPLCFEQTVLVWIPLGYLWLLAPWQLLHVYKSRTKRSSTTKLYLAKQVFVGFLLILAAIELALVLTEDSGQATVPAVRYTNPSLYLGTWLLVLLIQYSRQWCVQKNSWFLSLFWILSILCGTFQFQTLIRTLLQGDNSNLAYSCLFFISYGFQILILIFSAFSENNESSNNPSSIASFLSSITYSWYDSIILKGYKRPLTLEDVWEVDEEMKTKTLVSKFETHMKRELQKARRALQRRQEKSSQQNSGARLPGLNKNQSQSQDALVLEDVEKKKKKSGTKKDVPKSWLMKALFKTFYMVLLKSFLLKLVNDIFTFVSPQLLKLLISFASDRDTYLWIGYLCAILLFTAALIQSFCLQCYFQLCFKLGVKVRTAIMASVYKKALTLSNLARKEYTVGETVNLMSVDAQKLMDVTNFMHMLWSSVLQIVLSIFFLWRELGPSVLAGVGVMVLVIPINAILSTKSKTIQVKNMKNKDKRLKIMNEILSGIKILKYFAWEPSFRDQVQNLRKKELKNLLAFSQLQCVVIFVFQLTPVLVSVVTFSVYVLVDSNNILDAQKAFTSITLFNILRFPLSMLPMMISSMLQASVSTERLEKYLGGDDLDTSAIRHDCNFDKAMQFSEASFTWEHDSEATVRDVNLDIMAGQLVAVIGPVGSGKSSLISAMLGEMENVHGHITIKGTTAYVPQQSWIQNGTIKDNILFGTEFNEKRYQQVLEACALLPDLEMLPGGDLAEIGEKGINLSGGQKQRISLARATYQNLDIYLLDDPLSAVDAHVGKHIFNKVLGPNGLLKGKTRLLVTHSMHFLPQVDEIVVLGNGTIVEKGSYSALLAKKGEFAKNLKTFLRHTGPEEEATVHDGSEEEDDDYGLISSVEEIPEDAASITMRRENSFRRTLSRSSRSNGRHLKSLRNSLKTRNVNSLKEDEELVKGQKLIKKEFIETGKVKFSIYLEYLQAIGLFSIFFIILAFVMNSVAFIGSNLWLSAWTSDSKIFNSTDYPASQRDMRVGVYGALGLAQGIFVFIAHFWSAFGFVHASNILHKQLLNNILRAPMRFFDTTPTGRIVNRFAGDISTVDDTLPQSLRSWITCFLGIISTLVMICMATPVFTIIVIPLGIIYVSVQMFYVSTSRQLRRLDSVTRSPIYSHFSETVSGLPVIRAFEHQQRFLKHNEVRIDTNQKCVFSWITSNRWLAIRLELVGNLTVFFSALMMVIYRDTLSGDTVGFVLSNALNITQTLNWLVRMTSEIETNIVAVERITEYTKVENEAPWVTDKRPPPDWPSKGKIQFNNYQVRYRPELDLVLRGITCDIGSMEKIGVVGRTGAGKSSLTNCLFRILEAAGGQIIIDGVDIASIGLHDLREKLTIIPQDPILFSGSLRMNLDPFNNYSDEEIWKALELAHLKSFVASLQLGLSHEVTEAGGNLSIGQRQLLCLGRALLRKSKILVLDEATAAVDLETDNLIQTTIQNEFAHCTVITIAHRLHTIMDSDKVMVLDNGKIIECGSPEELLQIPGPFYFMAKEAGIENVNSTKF", "type": "in vitro ADME", "details": "37°C, inside-out Sf9 membrane vesicles"}, "[1]": {"details": "both control and TR− rats, 24 h, data not shown"}, "[2]": {"details": "control (Wistar) rats, i.v., 24 h"}}, "note": "Read-outs that look alike come from different tables or passages of the source."}
{"compound": "N[C@@H](CS)C(=O)[O-].N[C@@H](CS)C(=O)[O-].[Hg+2]", "note": "[Cys-S-Hg-S-Cys, Cysteine-S-conjugate of HgCl2]", "values": [{"measurement": "concentration of Hg in the outer stripe of the outer medulla, compared with rats of the same strain exposed to HgCl2 or CH3HgCl alone", "setting": "Disposition of Hg; TR− rats, i.v., 24 h", "value": "not significantly different"}, {"measurement": "fecal excretion of Hg, compared with rats of the same strain exposed to HgCl2 or CH3HgCl alone", "setting": "Disposition of Hg; TR− rats, i.v., 24 h", "value": "not significantly different"}, {"measurement": "hematological burden of Hg, compared with rats of the same strain exposed to HgCl2 or CH3HgCl alone", "setting": "Disposition of Hg; TR− rats, i.v., 24 h", "value": "significantly lower"}, {"measurement": "hepatic burden of Hg, compared with rats of the same strain exposed to HgCl2 or CH3HgCl alone", "setting": "Disposition of Hg; TR− rats, i.v., 24 h", "value": "not significantly different"}, {"measurement": "renal burden of Hg, compared with rats of the same strain exposed to HgCl2 or CH3HgCl alone", "setting": "Disposition of Hg; TR− rats, i.v., 24 h", "value": "significantly greater than that of corresponding rats treated with HgCl2"}, {"measurement": "urinary excretion of Hg, compared with rats of the same strain exposed to HgCl2 or CH3HgCl alone", "setting": "Disposition of Hg; TR− rats, i.v., 24 h", "value": "not significantly different"}, {"measurement": "cortical concentration of Hg, compared with rats of the same strain exposed to HgCl2 or CH3HgCl alone", "setting": "Disposition of Hg; TR− rats, i.v., 24 h", "value": "significant increase"}, {"measurement": "concentration of Hg in the outer stripe of the outer medulla, compared with rats of the same strain exposed to HgCl2 or CH3HgCl alone", "setting": "Disposition of Hg; control rats, i.v., 24 h", "value": "not significantly different"}, {"measurement": "fecal excretion of Hg, compared with rats of the same strain exposed to HgCl2 or CH3HgCl alone", "setting": "Disposition of Hg; control rats, i.v., 24 h", "value": "significantly greater than that of corresponding rats exposed to HgCl2 alone"}, {"measurement": "hepatic burden of Hg", "setting": "Disposition of Hg; control rats, i.v., 24 h", "value": "~5 % of the administered dose"}, {"measurement": "hepatic burden of Hg, compared with rats of the same strain exposed to HgCl2 or CH3HgCl alone", "setting": "Disposition of Hg; control rats, i.v., 24 h", "value": "increased significantly"}, {"measurement": "renal burden of Hg, compared with rats of the same strain exposed to HgCl2 or CH3HgCl alone", "setting": "Disposition of Hg; control rats, i.v., 24 h", "value": "significantly greater than that of corresponding rats treated with HgCl2"}, {"measurement": "urinary excretion of Hg, compared with rats of the same strain exposed to HgCl2 or CH3HgCl alone", "setting": "Disposition of Hg; control rats, i.v., 24 h", "value": "not significantly different"}, {"measurement": "cortical concentration of Hg, compared with rats of the same strain exposed to HgCl2 or CH3HgCl alone", "setting": "Disposition of Hg; control rats, i.v., 24 h", "value": "significant increase"}, {"measurement": "distribution of Hg in blood between plasma and cellular components", "setting": "Disposition of Hg; 24 h, data not shown", "value": "distributed evenly between plasma and cellular components"}, {"measurement": "amount of Hg in blood, TR− rats compared with corresponding control rats", "setting": "Disposition of Hg; i.v., 24 h", "value": "slightly, but not significantly, greater"}, {"measurement": "renal burden of Hg, TR− rats compared with corresponding control rats", "setting": "Disposition of Hg; i.v., 24 h", "value": "more Hg was detected in kidneys of TR^− rats"}, {"measurement": "renal burden of Hg", "setting": "Disposition of Hg; i.v., 24 h", "value": "~70 % of the dose"}, {"measurement": "cortical concentration of Hg, TR− rats compared with corresponding control rats", "setting": "Disposition of Hg; i.v., 24 h", "value": "tended to be greater"}, {"measurement": "uptake into MRP2 vesicles compared with control vesicles", "setting": "human MRP2; 5 μM mercuric conjugate", "value": "significantly greater in MRP2 vesicles than in control vesicles"}]}
{"compound": "[CH3][Hg][Cl]", "note": "[CH3HgCl, methylmercuric chloride]", "values": [{"measurement": "hepatic burden of Hg", "setting": "Disposition of Hg; TR− rats, i.v., 24 h", "value": "about 14 % of the dose"}, {"measurement": "renal burden of Hg (total renal mass)", "setting": "Disposition of Hg; TR− rats, i.v., 24 h", "value": "approximately 5 % of the administered dose"}, {"measurement": "hematological burden of Hg associated with cellular components of blood", "setting": "Disposition of Hg; [1]", "value": "approximately 99%"}, {"measurement": "hematological burden of Hg present in plasma", "setting": "Disposition of Hg; [1]", "value": "~1", "unit": "%"}, {"measurement": "renal burden of Hg (total renal mass)", "setting": "Disposition of Hg; [2]", "value": "approximately 5 % of the administered dose"}, {"measurement": "urinary excretion of Hg in 24 h", "setting": "Disposition of Hg; control rats, i.v.", "value": "approximately 0.5 % of the administered dose"}, {"measurement": "amount of Hg in blood, TR− rats compared with corresponding control rats", "setting": "Disposition of Hg; i.v., 24 h", "value": "did not significantly alter"}, {"measurement": "hepatic burden of Hg, TR− rats compared with corresponding control rats", "setting": "Disposition of Hg; i.v., 24 h", "value": "two-fold greater"}, {"measurement": "renal burden of Hg, TR− rats compared with corresponding control rats", "setting": "Disposition of Hg; i.v., 24 h", "value": "No significant differences"}, {"measurement": "urinary excretion of Hg, control rats compared with corresponding TR− rats", "setting": "Disposition of Hg; i.v., 24 h", "value": "not significantly different"}, {"measurement": "administered dose present in blood", "setting": "Disposition of Hg; i.v., 24 h", "value": "over 40%"}, {"measurement": "renal burden of Hg", "setting": "Disposition of Hg; i.v., 24 h", "value": "about 5 % of the dose"}, {"measurement": "cortical concentration of Hg, TR− rats compared with corresponding control rats", "setting": "Disposition of Hg; i.v., 24 h", "value": "similar"}]}
{"compound": "CCCCC/C=C\\C\\C=C/C=C/C=C/[C@@H](SC[C@H](NC(=O)CC[C@H](N)C(=O)O)C(=O)NCC(=O)O)[C@@H](O)CCCC(=O)O", "note": "[LTC4, Leukotriene C4, reference compound]", "values": [{"measurement": "uptake into MRP2 vesicles compared with control vesicles", "setting": "human MRP2; 50 nM LTC4, 2.5 min", "value": "significantly greater in MRP2 vesicles than in control vesicles"}]}
{"compound": "Cysteine-S-conjugate of CH3HgCl [Cys-S-CH3Hg]", "values": [{"measurement": "concentration of Hg in the outer stripe of the outer medulla, compared with rats of the same strain exposed to HgCl2 or CH3HgCl alone", "setting": "Disposition of Hg; TR− rats, i.v., 24 h", "value": "significantly greater"}, {"measurement": "cortical concentration of Hg, compared with rats of the same strain exposed to HgCl2 or CH3HgCl alone", "setting": "Disposition of Hg; TR− rats, i.v., 24 h", "value": "significantly greater"}, {"measurement": "concentration of Hg in the outer stripe of the outer medulla, compared with rats of the same strain exposed to HgCl2 or CH3HgCl alone", "setting": "Disposition of Hg; control rats, i.v., 24 h", "value": "significantly greater"}, {"measurement": "cortical concentration of Hg, compared with rats of the same strain exposed to HgCl2 or CH3HgCl alone", "setting": "Disposition of Hg; control rats, i.v., 24 h", "value": "significantly greater"}, {"measurement": "cortical concentration of Hg, TR− rats compared with corresponding control rats", "setting": "Disposition of Hg; i.v., 24 h", "value": "no significant difference"}, {"measurement": "uptake into MRP2 vesicles compared with control vesicles", "setting": "human MRP2; 5 μM mercuric conjugate", "value": "significantly greater in MRP2 vesicles than in control vesicles"}]}
{"compound": "[Cl][Hg][Cl]", "note": "[HgCl2, mercuric chloride]", "values": [{"measurement": "fecal excretion of Hg after 24 h", "setting": "Disposition of Hg; TR− rats, i.v.", "value": "approximately 1.5 % of the administered dose"}, {"measurement": "urinary excretion of Hg in 24 h", "setting": "Disposition of Hg; TR− rats, i.v.", "value": "about 1.5 % of the administered dose"}, {"measurement": "hepatic burden of Hg", "setting": "Disposition of Hg; TR− rats, i.v., 24 h", "value": "~6.5 % of the dose"}, {"measurement": "renal burden of Hg (total renal mass)", "setting": "Disposition of Hg; TR− rats, i.v., 24 h", "value": "60 % of the administered dose"}, {"measurement": "renal burden of Hg (total renal mass)", "setting": "Disposition of Hg; [2]", "value": "approximately 50 % of the administered dose"}, {"measurement": "fecal excretion of Hg after 24 h", "setting": "Disposition of Hg; control rats, i.v.", "value": "approximately 3 % of the administered dose"}, {"measurement": "urinary excretion of Hg in 24 h", "setting": "Disposition of Hg; control rats, i.v.", "value": "approximately 4 % of the administered dose"}, {"measurement": "hepatic burden of Hg", "setting": "Disposition of Hg; control rats, i.v., 24 h", "value": "approximately 3.5 % of the administered dose"}, {"measurement": "distribution of Hg in blood between plasma and cellular components", "setting": "Disposition of Hg; 24 h, data not shown", "value": "distributed evenly between plasma and cellular components"}, {"measurement": "amount of Hg in blood, TR− rats compared with corresponding control rats", "setting": "Disposition of Hg; i.v., 24 h", "value": "significantly greater"}, {"measurement": "renal burden of Hg, TR− rats compared with corresponding control rats", "setting": "Disposition of Hg; i.v., 24 h", "value": "significantly different than that of corresponding control (Wistar) rats"}, {"measurement": "administered dose present in blood", "setting": "Disposition of Hg; i.v., 24 h", "value": "1-2%"}, {"measurement": "renal burden of Hg", "setting": "Disposition of Hg; i.v., 24 h", "value": "approximately 50 % of the dose"}, {"measurement": "cortical concentration of Hg, TR− rats compared with corresponding control rats", "setting": "Disposition of Hg; i.v., 24 h", "value": "tended to be greater"}]}
